From ChEMBL document CHEMBL4828731, “Synthesis, structure-activity relationships and molecular docking studies of phenyldiazenyl sulfonamides as aromatase inhibitors” (Eur J Med Chem, 2021) come the findings set out here.

In series [1] the target is T1, Aromatase (Homo sapiens, UniProt P11511).
T1 sequence (P11511 whole entry): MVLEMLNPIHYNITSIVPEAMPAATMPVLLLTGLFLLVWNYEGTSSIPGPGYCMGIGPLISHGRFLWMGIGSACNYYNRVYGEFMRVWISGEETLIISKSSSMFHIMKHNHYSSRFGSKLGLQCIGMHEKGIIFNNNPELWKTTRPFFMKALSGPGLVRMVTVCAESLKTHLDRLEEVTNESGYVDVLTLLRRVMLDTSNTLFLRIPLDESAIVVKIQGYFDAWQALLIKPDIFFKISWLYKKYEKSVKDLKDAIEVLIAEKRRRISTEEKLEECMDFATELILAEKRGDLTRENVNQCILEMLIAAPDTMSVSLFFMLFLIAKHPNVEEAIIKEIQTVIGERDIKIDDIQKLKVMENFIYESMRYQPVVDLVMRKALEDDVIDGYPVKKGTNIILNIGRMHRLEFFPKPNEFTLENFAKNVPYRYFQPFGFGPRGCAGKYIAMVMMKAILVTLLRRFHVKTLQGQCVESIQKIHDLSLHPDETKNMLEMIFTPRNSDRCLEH
Nature of the series: Inhibition of human aromatase assessed as reduction in fluorescence intensity using 7-methoxy-4-trifluoromethyl coumarin as a substrate at 1 uM by fluorimetric assay relative to control.

For series [2], the target named is T1, Aromatase. The series is described as follows: Inhibition of human aromatase assessed as reduction in fluorescence intensity using 7-methoxy-4-trifluoromethyl coumarin as a substrate by fluorimetric assay.
Series [3] has as its target T1, Aromatase. The series is described as follows: Potency index, ratio of resveratrol IC50 to test compound IC50 for Inhibition of human aromatase assessed as reduction in fluorescence intensity using 7-methoxy-4-trifluoromethyl coumarin as a substrate by fluorimetric assay.
Series [4] concerns MCF7. Nature of the series: Cytotoxicity against human MCF7 cells assessed as reduction in cell metabolic activity up to 50 uM incubated for 24 hrs by MTT assay relative to control. Also on record: scale not given: the % may be the effect or the level left. In kind it is functional. Particulars: dose microM <=50.
For series [5], the system named is MCF7. Nature of the series: Cytotoxicity against human MCF7 cells assessed as release of LDH up to 250 uM measured after 24 hrs by lactate dehydrogenase assay. In kind it is functional, cell-based. The following applies: dose microM <=250, time 24.0 hrs.
The test system of series [6] is MCF7. Nature of the series: Cytotoxicity against human MCF7 cells assessed as reduction in cell metabolic activity up to 50 uM incubated for 48 hrs by MTT assay relative to control. The series is classed as functional. Also on record: scale not given: the % may be the effect or the level left. The following applies: dose microM <=50. (In general: Tetrazolium dyes change colour on reduction, which living cells bring about.)

For series [7], the system named is MCF7. The series is described as follows: Cytotoxicity against human MCF7 cells assessed as reduction in cell metabolic activity at 250 uM incubated for 72 hrs by MTT assay relative to control. In kind it is functional. The arrangement: scale not given: the % may be the effect or the level left.
Series [8] deals with HFF-1. The series is described as follows: Cytotoxicity against human HFF-1 clls assessed as reduction in cell viability at 10 to 100 uM measured after 72 hrs by MTT assay. The series is classed as cell-based. The following applies: hff-1, 72 h, dose 10-100 µM.
The nature of series [9]: Selectivity index, ratio of IC50 for cytotoxicity against human HFF-1 cells to IC50 for cytotoxicity against human MCF7 cells measured after 24 hrs by MTT assay. In kind it is toxicity, cell-based. The following applies: HFF-1 cells and MCF7 cells, read-out: Selectivity Index.
The subject of series [10] is MCF7. The series is described as follows: Cytotoxicity against human MCF7 cells assessed as reduction in cell metabolic activity at 100 uM incubated for 24 hrs by MTT assay relative to control. In kind it is functional. The arrangement: scale not given: the % may be the effect or the level left.
Series [11] relates to MCF7. The series is described as follows: Cytotoxicity against human MCF7 cells assessed as fold increase in release of LDH at 50 uM measured after 24 hrs by lactate dehydrogenase assay relative to control. The series is classed as functional.
Series [12] relates to MCF7. Nature of the series: Induction of apoptosis in human MCF7 cells assessed as cells in apoptotic stage at 100 uM measured after 24 hrs by Annexin V-APC/PI staining based flow cytometry analysis (Rvb= 7.3%). In kind it is functional.
Series [13] relates to MCF7. The series is described as follows: Induction of apoptosis in human MCF7 cells assessed as cells in apoptotic stage at 250 uM measured after 24 hrs by Annexin V-APC/PI staining based flow cytometry analysis (Rvb= 7.3%). The series is classed as functional. In general terms: Flow cytometry measures light scatter and fluorescence of single cells or particles in a stream.

The test system of series [14] is MCF7. The series is described as follows: Induction of apoptosis in human MCF7 cells assessed as increase in necrotic cells at 10 to 250 uM measured after 24 hrs by Annexin V-APC/PI staining based flow cytometry analysis relative to control. The series is classed as functional, cell-based. Particulars: dose 10-250 µM.
Series [15] deals with MCF7. The series is described as follows: Cytotoxicity against human MCF7 cells assessed as reduction in cell metabolic activity incubated for 72 hrs by MTT assay. The series is classed as functional, cell-based.
In series [16] the test system is MCF7. The series is described as follows: Cell cycle arrest in human MCF7 cells assessed as reduction in cells in S phase measured after 72 hrs by propidium iodide staining based flow cytometry analysis. The series is classed as functional.
Series [17] has as its system MCF7. The series is described as follows: Cell cycle arrest in human MCF7 cells assessed as increase in cells in G1 phase measured after 72 hrs by propidium iodide staining based flow cytometry analysis. The series is classed as functional.
In series [18] the test system is HFF-1. Nature of the series: Cytotoxicity against human HFF-1 clls assessed as reduction in cell viability at 250 uM measured after 72 hrs by MTT assay. The series is classed as cell-based. Particulars: hff-1, 72 h.
The nature of series [19]: Selectivity index, ratio of IC50 for cytotoxicity against human HFF-1 cells to IC50 for cytotoxicity against human MCF7 cells measured after 48 hrs by MTT assay. The series is classed as toxicity, cell-based. Particulars: HFF-1 cells and MCF7 cells, read-out: Selectivity Index.
Series [20] in a line: Selectivity index, ratio of IC50 for cytotoxicity against human HFF-1 cells to IC50 for cytotoxicity against human MCF7 cells measured after 72 hrs by MTT assay. The series is classed as toxicity, cell-based. Particulars: HFF-1 cells and MCF7 cells, read-out: Selectivity Index.
Series [21] addresses T1, Aromatase. The series is described as follows: Inhibition of human aromatase in T47D measured after 24 hrs by ELISA. Background: ELISA stands for enzyme-linked immunosorbent assay.

Activity calls are given as the source filed them. The rule behind the calls is not given here.

In general, inhibition refers to the percentage by which the read-out fell short of the control. One may read the IC50 as the midpoint of a concentration-inhibition curve. In the case of `COc1ccc(S(=O)(=O)N(Cc2nc3ccccc3[nH]2)c2ccc(/N=N/c3ccccc3)cc2)c(OC)c1`, the inhibition at 1 µM at Aromatase [1] stood at 50%. Moreover, the IC50 on Aromatase [2] was 5.7 µM. The “Ratio IC50” value at Aromatase [3] was 14. Further, the Activity in the series with MCF7 [4] is recorded as 20%; in the series with MCF7 [6] it was 60%; with MCF7 [7] it was 134.2%; in the series on HFF-1 [8], “Non-Toxic”. For the same compound, in the series with MCF7 [5], the result was inactive. For the same compound, the selectivity ratio at 24 h in series [9] was over 2.25.
In the case of `N#Cc1ccc(S(=O)(=O)Nc2ccc(/N=N/c3ccccc3)cc2)c(Cl)c1`, the inhibition at 1 µM on Aromatase [1] is under 20%.
Still for that read-out and setting: then `Cc1ccc(S(=O)(=O)N(Cc2nc3ccccc3[nH]2)c2ccc(/N=N/c3ccccc3)cc2)cc1[N+](=O)[O-]`, with under 20%; and `O=[N+]([O-])c1cccc(S(=O)(=O)Nc2ccc(/N=N/c3ccccc3)cc2)c1`, with under 20%.
Turning to `COc1ccc(S(=O)(=O)Nc2ccc(/N=N/c3ccccc3)cc2)c(OC)c1`, the IC50 at Aromatase [2] was found to be 1.6 µM. Besides, the “Ratio IC50” value at Aromatase [3] is recorded as 50. Moreover, the Activity was 20% in the series with MCF7 [4]; 47.4% in the series on MCF7 [10]; 19.7% in the series on MCF7 [12]; 14.7% with MCF7 [13]; 60% in the series with MCF7 [6]; “Dose-Dependent Effect” with MCF7 [15]. Further, the Activity result in the series with MCF7 [16] is “Dose-Dependent Effect”; with MCF7 [17] it was “Dose-Dependent Effect”; with HFF-1 [8], “Non-Toxic”; in the series with HFF-1 [18], “Toxic”. The “fold change (FC)” value with MCF7 [11] was determined as 2.5. In addition, the outcome with MCF7 [14] was Active. Further, the selectivity ratio at 24 h in series [9] stood at 2.12. Also, the selectivity ratio at 48 h in series [19] turned out to be 3.19. The selectivity ratio at 72 h in series [20] turned out to be 3.74.
In the case of `Cc1ccc(S(=O)(=O)Nc2ccc(/N=N/c3ccccc3)cc2)cc1[N+](=O)[O-]`, the inhibition at 1 µM on Aromatase [1] was under 20%.
`O=S(=O)(Nc1ccc(/N=N/c2ccccc2)cc1)c1ccc(Cl)s1`: the inhibition at 1 µM on Aromatase [1] is under 20%.
The same measure, in the same setting: for `CCS(=O)(=O)Nc1ccc(/N=N/c2ccccc2)cc1` the value was under 20%.
On Aromatase [21], `COc1cnc(NS(=O)(=O)c2ccc(N/C=C\C(=O)c3cc4ccccc4oc3=O)cc2)nc1` registered an IC50 of 6 µM.
As to `O=S(=O)(Nc1ccc(/N=N/c2ccccc2)cc1)c1ccccc1`, the inhibition at 1 µM on Aromatase [1] was under 20%.
With `Oc1ccc(/C=C/c2cc(O)cc(O)c2)cc1` [RESVERATROL], the Activity in the series on MCF7 [10] was 78.2%; in the series on MCF7 [15], “Dose-Dependent Effect”. Moreover, the result in the series on MCF7 [5] was inactive.
Turning to `CC(=O)Nc1ccc(S(=O)(=O)Nc2ccc(/N=N/c3ccccc3)cc2)cc1`, the inhibition at 1 µM at Aromatase [1] was under 20%.
On the same count and under the same terms, then `CS(=O)(=O)Nc1ccc(/N=N/c2ccccc2)cc1`, with under 20%.
As for `N#Cc1ccc(S(=O)(=O)Nc2ccc(/N=N/c3ccccc3)cc2)cc1`, the IC50 at Aromatase [2] is 7.9 µM. Also, the Activity with MCF7 [4] is 20%; in the series on MCF7 [6] it was 60%; with MCF7 [15] it was “Dose-Dependent Effect”; with HFF-1 [8], “Non-Toxic”. The result in the series with MCF7 [5] was inactive. The selectivity ratio at 24 h in series [9] is over 1.6.
As to `O=S(=O)(Cc1ccccc1)Nc1ccc(/N=N/c2ccccc2)cc1`, at Aromatase [1], the inhibition at 1 µM is under 20%.
Still for that read-out and setting: for `O=S(=O)(c1ccccc1)N(Cc1nc2ccccc2[nH]1)c1ccc(/N=N/c2ccccc2)cc1` the value was under 20%.
